Assay results published in ChEMBL document CHEMBL1201862, “PubChem BioAssay data set” (2004).
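Results reflect a 48-hour exposure of cells in 96-well plates to compound at five concentrations. At the GI50, growth is halved.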 The source made the active and inactive calls. Rule as the data show it: active = GI50 up to about 1.1 µM and inactive = higher.

How the values were obtained:
Experiment in all cases: NCI anticancer screen, dose series, 48 h
[1] = system: SNB-78
[2] = system: IGROV-1
[3] = system: NCI-H226
[4] = system: KM12
[5] = system: M14
[6] = system: SK-MEL-28
[7] = system: NCI-H23
[8] = system: SNB-19
[9] = system: A549
[10] = system: K562
[11] = system: MOLT-4
[12] = system: HCT-116
[13] = system: COLO 205
[14] = system: SN12C
[15] = system: DMS-273
[16] = system: NCI-H522
[17] = system: HOP-92
[18] = system: LXFL 529
[19] = system: HT-29
[20] = system: DLD-1
[21] = system: LOX IMVI
[22] = system: SF-539
[23] = system: SW-620
[24] = system: CAKI-1
[25] = system: DMS-114
[26] = system: NCI-H460
[27] = system: SNB-75
[28] = system: HOP-18
[29] = system: RXF 393
[30] = system: TK-10
[31] = system: UACC-257
[32] = system: HCT-15
[33] = system: ACHN
[34] = system: UO-31
[35] = system: CCRF-CEM
[36] = system: UACC-62
[37] = system: SK-MEL-5
[38] = system: OVCAR-3
[39] = system: HL-60
[40] = system: EKVX
[41] = system: OVCAR-8
[42] = system: HCC 2998
[43] = system: U-251
[44] = system: SF-295
[45] = system: M19-MEL
[46] = system: SK-OV-3
[47] = system: 786-0
[48] = system: A498
[49] = system: RPMI-8226
[50] = system: Malme-3M
[51] = system: HOP-62
[52] = system: XF498
[53] = system: OVCAR-5
[54] = system: SK-MEL-2
[55] = system: SF-268
[56] = system: OVCAR-4
[57] = system: SR
[58] = system: KM-20L2

NC(CCc1nc(-c2ccccc2)cs1)C(=O)O (centres undefined)
GI50 [1]: > 100 µM (inactive)
GI50 [2]: > 100 µM (inactive)
GI50 [3]: > 100 µM (inactive)
GI50 [4]: > 100 µM (inactive)
GI50 [5]: > 100 µM (inactive)
GI50 [6]: > 100 µM (inactive)
GI50 [7]: > 100 µM (inactive)
GI50 [8]: > 100 µM (inactive)
GI50 [9]: > 100 µM (inactive)
GI50 [10]: > 100 µM (inactive)
GI50 [11]: > 100 µM (inactive)
GI50 [12]: > 100 µM (inactive)
GI50 [13]: > 100 µM (inactive)
GI50 [14]: > 100 µM (inactive)
GI50 [15]: > 100 µM (inactive)
GI50 [16]: > 100 µM (inactive)
GI50 [17]: > 100 µM (inactive)
GI50 [18]: > 100 µM (inactive)
GI50 [19]: > 100 µM (inactive)
GI50 [20]: > 100 µM (inactive)
GI50 [21]: > 100 µM (inactive)
GI50 [22]: > 100 µM (inactive)
GI50 [23]: > 100 µM (inactive)
GI50 [24]: > 100 µM (inactive)
GI50 [25]: > 100 µM (inactive)
GI50 [26]: > 100 µM (inactive)
GI50 [27]: 59.6 µM (inactive)
GI50 [28]: > 100 µM (inactive)
GI50 [29]: > 100 µM (inactive)
GI50 [30]: > 100 µM (inactive)
GI50 [31]: > 100 µM (inactive)
GI50 [32]: > 100 µM
GI50 [33]: > 100 µM (inactive)
GI50 [34]: 75.2 µM (inactive)
GI50 [35]: > 100 µM (inactive)
GI50 [36]: > 100 µM (inactive)
GI50 [37]: > 100 µM (inactive)
GI50 [38]: > 100 µM (inactive)
GI50 [39]: > 100 µM (inactive)
GI50 [40]: > 100 µM (inactive)
GI50 [41]: > 100 µM (inactive)
GI50 [42]: > 100 µM (inactive)
GI50 [43]: > 100 µM (inactive)
GI50 [44]: > 100 µM (inactive)
GI50 [45]: > 100 µM (inactive)
GI50 [46]: > 100 µM (inactive)
GI50 [47]: 81.7 µM (inactive)
GI50 [48]: > 100 µM (inactive)
GI50 [49]: > 100 µM (inactive)
GI50 [50]: > 100 µM (inactive)

CC1CC2C(=O)NC(=O)C2c2[nH]c3ccccc3c21 (centres undefined)
GI50 [1]: > 100 µM (inactive)
GI50 [2]: > 100 µM (inactive)
GI50 [3]: 67.1 µM (inactive)
GI50 [4]: > 100 µM (inactive)
GI50 [5]: > 100 µM (inactive)
GI50 [51]: 74 µM (inactive)
GI50 [7]: > 100 µM (inactive)
GI50 [9]: > 100 µM (inactive)
GI50 [10]: 91.2 µM (inactive)
GI50 [11]: > 100 µM (inactive)
GI50 [12]: > 100 µM (inactive)
GI50 [13]: > 100 µM (inactive)
GI50 [52]: > 100 µM (inactive)
GI50 [14]: 78.7 µM (inactive)
GI50 [15]: > 100 µM (inactive)
GI50 [16]: 51.4 µM (inactive)
GI50 [17]: 34.4 µM (inactive)
GI50 [18]: > 100 µM (inactive)
GI50 [19]: > 100 µM (inactive)
GI50 [20]: > 100 µM (inactive)
GI50 [53]: > 100 µM (inactive)
GI50 [54]: > 100 µM (inactive)
GI50 [21]: > 100 µM (inactive)
GI50 [22]: > 100 µM (inactive)
GI50 [23]: > 100 µM (inactive)
GI50 [24]: 42.8 µM (inactive)
GI50 [25]: 96.2 µM (inactive)
GI50 [26]: > 100 µM (inactive)
GI50 [27]: 1.53 µM (inactive)
GI50 [55]: > 100 µM (inactive)
GI50 [56]: 92.7 µM (inactive)
GI50 [32]: > 100 µM
GI50 [33]: > 100 µM (inactive)
GI50 [34]: 71.4 µM (inactive)
GI50 [35]: > 100 µM (inactive)
GI50 [57]: > 100 µM (inactive)
GI50 [37]: 70 µM (inactive)
GI50 [38]: 96.2 µM (inactive)
GI50 [39]: 40.6 µM (inactive)
GI50 [40]: > 100 µM (inactive)
GI50 [41]: > 100 µM (inactive)
GI50 [43]: > 100 µM (inactive)
GI50 [44]: > 100 µM (inactive)
GI50 [45]: > 100 µM (inactive)
GI50 [46]: > 100 µM (inactive)
GI50 [47]: > 100 µM (inactive)
GI50 [49]: > 100 µM (inactive)
GI50 [50]: > 100 µM (inactive)

O=C(/C=C/c1ccccc1Cl)c1ccc(Cl)c(Cl)c1
GI50 [1]: 16.2 µM (inactive)
GI50 [2]: 12.4 µM (inactive)
GI50 [3]: > 100 µM (inactive)
GI50 [4]: 15.8 µM (inactive)
GI50 [58]: 17.3 µM (inactive)
GI50 [5]: 17.5 µM (inactive)
GI50 [51]: 23 µM (inactive)
GI50 [6]: 20.2 µM (inactive)
GI50 [7]: 20 µM (inactive)
GI50 [8]: 16.4 µM (inactive)
GI50 [9]: 19.5 µM (inactive)
GI50 [10]: 26.8 µM (inactive)
GI50 [11]: 21.3 µM (inactive)
GI50 [12]: 11.5 µM (inactive)
GI50 [13]: > 100 µM (inactive)
GI50 [14]: > 100 µM (inactive)
GI50 [15]: 19.9 µM (inactive)
GI50 [16]: 17.3 µM (inactive)
GI50 [17]: 26.9 µM (inactive)
GI50 [18]: 16.1 µM (inactive)
GI50 [19]: 19.8 µM (inactive)
GI50 [20]: 15.8 µM (inactive)
GI50 [53]: 17.6 µM (inactive)
GI50 [54]: 18 µM (inactive)
GI50 [21]: 14.6 µM (inactive)
GI50 [22]: 18.2 µM (inactive)
GI50 [23]: 15.1 µM (inactive)
GI50 [24]: 15.4 µM (inactive)
GI50 [26]: 34.5 µM (inactive)
GI50 [27]: 13 µM (inactive)
GI50 [28]: 14.8 µM (inactive)
GI50 [55]: 18.3 µM (inactive)
GI50 [29]: 13.1 µM (inactive)
GI50 [30]: 18.5 µM (inactive)
GI50 [56]: 12.9 µM (inactive)
GI50 [31]: 19.7 µM (inactive)
GI50 [32]: 15.7 µM
GI50 [33]: 15.3 µM (inactive)
GI50 [34]: 17.1 µM (inactive)
GI50 [35]: 26.4 µM (inactive)
GI50 [57]: 21.7 µM (inactive)
GI50 [36]: 19.1 µM (inactive)
GI50 [37]: 18.9 µM (inactive)
GI50 [38]: 15.4 µM (inactive)
GI50 [39]: 25.8 µM (inactive)
GI50 [40]: 14.5 µM (inactive)
GI50 [41]: 17.7 µM (inactive)
GI50 [42]: 15.5 µM (inactive)
GI50 [43]: 17.3 µM (inactive)
GI50 [44]: 17.3 µM (inactive)
GI50 [45]: 16.3 µM (inactive)
GI50 [46]: 24.5 µM (inactive)
GI50 [47]: 16.3 µM (inactive)
GI50 [48]: 15.9 µM (inactive)
GI50 [49]: 37.7 µM (inactive)
GI50 [50]: 22.8 µM (inactive)
